Reference: PMC4758672 (Bioorganic & medicinal chemistry letters, 2015)
Where two headings read alike, the source gives them in different places.

Experiments:
[1] = target: T1, hmGlu1 (Homo sapiens, UniProt Q13255); experiment: Calcium mobilization mGlu1 PAM assay; assay type: cell-based; conditions: for Fold selective versus mGlu4: mGlu4 EC50 / mGlu1 EC50; for mGlu1 agonism / PAM profile: agonism at concentrations above 10 µM
[2] = Rat brain homogenate binding; assay type: in vitro ADME
[3] = In vitro predicted hepatic clearance, human hepatic microsomes; assay type: in vitro ADME
[4] = In vitro predicted hepatic clearance, rat hepatic microsomes; assay type: in vitro ADME
[5] = target: mGlu5 (Homo sapiens, UniProt P41594); experiment: Activity at mGlu5; assay type: cell-based
mGlu5, sequence (P41594 21-1212): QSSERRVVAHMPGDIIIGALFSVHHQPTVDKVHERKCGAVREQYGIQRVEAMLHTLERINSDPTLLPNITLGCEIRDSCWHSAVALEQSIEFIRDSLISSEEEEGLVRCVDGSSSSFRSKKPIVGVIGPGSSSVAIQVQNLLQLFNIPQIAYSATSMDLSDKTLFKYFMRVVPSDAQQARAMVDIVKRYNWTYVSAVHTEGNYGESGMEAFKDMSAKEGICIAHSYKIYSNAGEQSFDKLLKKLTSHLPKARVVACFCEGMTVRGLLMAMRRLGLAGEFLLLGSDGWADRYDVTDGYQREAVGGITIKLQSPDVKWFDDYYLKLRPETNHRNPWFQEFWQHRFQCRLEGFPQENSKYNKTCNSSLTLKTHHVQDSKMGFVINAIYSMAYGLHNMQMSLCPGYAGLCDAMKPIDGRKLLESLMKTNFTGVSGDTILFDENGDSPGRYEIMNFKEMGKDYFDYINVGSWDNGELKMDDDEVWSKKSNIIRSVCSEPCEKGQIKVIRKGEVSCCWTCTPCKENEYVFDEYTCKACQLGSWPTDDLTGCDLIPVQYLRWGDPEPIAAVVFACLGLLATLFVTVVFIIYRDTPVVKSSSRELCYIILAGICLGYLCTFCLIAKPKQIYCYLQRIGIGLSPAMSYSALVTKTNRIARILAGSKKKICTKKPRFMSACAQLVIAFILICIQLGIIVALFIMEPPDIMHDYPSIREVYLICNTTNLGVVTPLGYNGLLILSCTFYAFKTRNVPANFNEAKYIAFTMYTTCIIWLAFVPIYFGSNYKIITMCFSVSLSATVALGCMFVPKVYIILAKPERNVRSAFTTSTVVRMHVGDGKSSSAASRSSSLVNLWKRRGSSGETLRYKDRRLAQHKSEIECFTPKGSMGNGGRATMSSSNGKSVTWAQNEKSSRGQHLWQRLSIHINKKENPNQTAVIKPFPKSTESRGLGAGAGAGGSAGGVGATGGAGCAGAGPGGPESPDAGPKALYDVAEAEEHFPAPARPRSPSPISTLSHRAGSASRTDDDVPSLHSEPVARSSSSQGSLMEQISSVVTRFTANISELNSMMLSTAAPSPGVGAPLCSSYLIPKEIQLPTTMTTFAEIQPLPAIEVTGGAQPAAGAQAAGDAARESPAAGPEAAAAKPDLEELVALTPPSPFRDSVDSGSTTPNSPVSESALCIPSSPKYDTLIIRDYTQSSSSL

[6] = rat; cited from earlier work
[7] = cited from earlier work
[8] = human; cited from earlier work
[9] = target: T1, hmGlu1; conditions: cited from earlier work

T1 sequence (Q13255 19-1194): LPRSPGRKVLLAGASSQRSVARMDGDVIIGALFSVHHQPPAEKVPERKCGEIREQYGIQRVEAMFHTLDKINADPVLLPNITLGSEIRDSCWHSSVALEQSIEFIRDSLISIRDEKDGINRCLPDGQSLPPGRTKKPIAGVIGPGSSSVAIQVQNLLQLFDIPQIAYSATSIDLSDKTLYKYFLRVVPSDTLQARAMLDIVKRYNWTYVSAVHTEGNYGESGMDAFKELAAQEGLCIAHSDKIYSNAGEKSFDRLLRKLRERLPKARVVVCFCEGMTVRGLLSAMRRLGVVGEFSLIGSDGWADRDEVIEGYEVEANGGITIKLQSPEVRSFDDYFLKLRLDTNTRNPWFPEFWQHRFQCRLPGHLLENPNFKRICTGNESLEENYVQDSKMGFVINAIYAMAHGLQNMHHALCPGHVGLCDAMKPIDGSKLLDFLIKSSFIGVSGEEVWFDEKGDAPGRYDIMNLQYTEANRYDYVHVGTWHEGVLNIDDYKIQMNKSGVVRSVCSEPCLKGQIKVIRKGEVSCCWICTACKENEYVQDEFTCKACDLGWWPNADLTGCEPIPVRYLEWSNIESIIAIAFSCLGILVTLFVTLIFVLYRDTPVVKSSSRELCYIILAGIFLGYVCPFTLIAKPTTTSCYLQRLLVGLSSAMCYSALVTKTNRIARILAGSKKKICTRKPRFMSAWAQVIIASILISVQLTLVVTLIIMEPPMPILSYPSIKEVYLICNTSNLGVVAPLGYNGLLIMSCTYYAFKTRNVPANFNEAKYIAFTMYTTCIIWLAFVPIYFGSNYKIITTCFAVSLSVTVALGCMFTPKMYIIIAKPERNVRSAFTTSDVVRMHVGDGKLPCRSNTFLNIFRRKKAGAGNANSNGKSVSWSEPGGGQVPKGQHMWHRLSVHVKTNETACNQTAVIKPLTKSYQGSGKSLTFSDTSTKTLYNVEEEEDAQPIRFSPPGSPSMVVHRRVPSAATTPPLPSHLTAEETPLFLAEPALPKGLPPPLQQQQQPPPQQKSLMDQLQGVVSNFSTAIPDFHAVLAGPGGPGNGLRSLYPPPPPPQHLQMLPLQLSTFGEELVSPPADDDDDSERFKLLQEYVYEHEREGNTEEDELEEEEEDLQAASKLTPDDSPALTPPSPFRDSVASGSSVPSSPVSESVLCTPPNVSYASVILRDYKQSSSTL

Cc1ccoc1C(=O)Nc1ccc(N2C(=O)c3ccccc3C2=O)cc1 [10a]
Fold selective versus mGlu4 [1]: >208 fold

Cc1ccoc1C(=O)Nc1ccc(N2C(=O)c3ccccc3C2=O)nc1 [11a]
Fold selective versus mGlu4 [1]: >25.8 fold

Cc1ccoc1C(=O)Nc1cnc(N2C(=O)c3ccccc3C2=O)nc1 [11e]
mGlu1 versus mGlu4 PAM potency [1]: equipotent

Cc1ccoc1C(=O)Nc1cnc(N2C(=O)c3cccc(F)c3C2=O)nc1 [11h]
mGlu1 versus mGlu4 PAM potency [1]: equipotent
Fold selective versus mGlu4 [1]: >1.88 fold

Cc1ccoc1C(=O)Nc1ccc(N2C(=O)c3ccccc3C2=O)cc1F [12a]
fraction unbound [2]: < 0.01
predicted hepatic clearance CLHEP [3]: 9.65 mL/min/kg
predicted hepatic clearance CLHEP [4]: 48.5 mL/min/kg
activity at mGlu5 [5]: no activity
mGlu1 agonism / PAM profile [1]: did not show any observable agonistic effect
Fold selective versus mGlu4 [1]: >793 fold

Cc1ccoc1C(=O)Nc1ccc(N2C(=O)c3ccccc3C2=O)cc1Cl [12b]
fraction unbound [2]: < 0.01
predicted hepatic clearance CLHEP [3]: 9.25 mL/min/kg
predicted hepatic clearance CLHEP [4]: 48.7 mL/min/kg
activity at mGlu5 [5]: no activity
mGlu1 agonism / PAM profile [1]: did not show any observable agonistic effect
Fold selective versus mGlu4 [1]: >344 fold

COc1cc(N2C(=O)c3ccccc3C2=O)ccc1NC(=O)c1occc1C [12e]
Fold selective versus mGlu4 [1]: >30.3 fold

Cc1ccoc1C(=O)Nc1ccc(N2C(=O)c3cccc(F)c3C2=O)c(Cl)c1 [compound 4]
free fraction fu [6]: 0.03
Kp (CNS penetration) [7]: 1.02
CLp ([7]; rat PK): 13.3 mL/min/kg
free fraction fu [8]: 0.05
mGlu1 agonism ([9]; at concentrations above 10 µM, previously observed with parent compound): considerable agonism
selectivity versus mGlu4 [9]: 35 fold
